{"source": "patent USRE48335E1", "about": "“Polymyxin derivatives as antimicrobial compounds” (priority 2014, dated 2020)", "key": {"Klebsiella pneumoniae": {"test_system": "Klebsiella pneumoniae", "method_in_brief": "(§1)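 Lipopeptides, as trifluoroacetate salts, tested for MIC in CAMHB by CLSI broth microdilution, with polymyxin B (sulphate) as comparator.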"}, "Pseudomonas aeruginosa": {"test_system": "Pseudomonas aeruginosa", "method_in_brief": "as §1"}, "Enterobacter cloacae": {"test_system": "Enterobacter cloacae", "method_in_brief": "as §1"}, "Acinetobacter baumannii": {"test_system": "Acinetobacter baumannii", "method_in_brief": "as §1"}, "P. aeruginosa ATCC 27853": {"test_system": "P. aeruginosa ATCC 27853", "assay": "In vivo efficacy in mouse blood infection model (neutropenic Swiss mice)", "conditions": "compound, free base 4 mg/kg intravenously 2 h after inoculation, blood at 4 h", "method_in_brief": "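Activity expressed as Δlog10 CFU/mL blood, treated minus saline control, 4 h after a single 4 mg/kg (free base) i.v. dose given 2 h post-infection. Bloodstream infection from i.v. early log-phase inoculum in Swiss mice made neutropenic by i.p. cyclophosphamide on days −4 (150 mg/kg) and −1 (100 mg/kg).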"}, "[1]": {"conditions": "Pseudomonas aeruginosa ATCC 27853, broth microdilution in CAMHB, TFA salt"}, "[2]": {"conditions": "Pseudomonas aeruginosa FADDI-PA022, broth microdilution in CAMHB, TFA salt"}, "[3]": {"conditions": "Pseudomonas aeruginosa FADDI-PA025, broth microdilution in CAMHB, TFA salt"}, "[4]": {"conditions": "Enterobacter cloacae FADDI-EC001, broth microdilution in CAMHB, TFA salt"}, "[5]": {"conditions": "Enterobacter cloacae FADDI-EC003, broth microdilution in CAMHB, TFA salt"}, "[6]": {"conditions": "Enterobacter cloacae FADDI-EC006, broth microdilution in CAMHB, TFA salt"}, "[7]": {"conditions": "Acinetobacter baumannii ATCC 17978, broth microdilution in CAMHB, TFA salt"}, "[8]": {"conditions": "Acinetobacter baumannii ATCC 19606, broth microdilution in CAMHB, TFA salt"}, "[9]": {"conditions": "Acinetobacter baumannii FADDI-AB034, broth microdilution in CAMHB, TFA salt"}}, "note": "Like-named read-outs stand apart in the source and are kept apart here. Positions of bridges follow the written chain, without caps; N, C: chain ends. Non-standard residues stand in square brackets, D forms with d. Residues, ends and D or L forms follow the SMILES beside them. *: point of attachment. Benzoyl(4-(4-Cl-Ph)) = O=C(c1ccc(-c2ccc(Cl)cc2)cc1)*; Benzoyl(4-Ph) = O=C(c1ccc(-c2ccccc2)cc1)*; Nonanoyl = CCCCCCCCC(=O)*; Octanoyl = CCCCCCCC(=O)*; Dab = NCC[C@H](N)C(=O)O; Abu = CC[C@H](N)C(=O)O; Dap = NC[C@H](N)C(=O)O; Aib = CC(C)(N)C(=O)O"}
{"smiles": "CCCCCCCC(=O)N[C@@H](CCN)C(=O)N[C@H](C(=O)N[C@@H](CN)C(=O)N[C@H]1CCNC(=O)[C@H]([C@@H](C)O)NC(=O)[C@H](CCN)NC(=O)[C@H](CCN)NC(=O)C(C)(C)NC(=O)[C@@H](Cc2ccccc2)NC(=O)[C@H](CCN)NC1=O)[C@@H](C)O", "note": "[Compound 140] (Octanoyl-[Dab]T[Dap][Dab][Dab][dF][Aib][Dab][Dab]T; lactam 4-C)", "values": [{"measurement": "MIC", "setting": "Klebsiella pneumoniae", "value": 0.25, "unit": "µg/mL"}, {"measurement": "MIC", "setting": "Pseudomonas aeruginosa", "value": 1, "unit": "µg/mL"}, {"measurement": "Minimum inhibitory concentration (MIC), Pa ATCC 27853", "setting": "Pseudomonas aeruginosa", "value": 1, "unit": "µg/mL"}, {"measurement": "Minimum inhibitory concentration (MIC), Pa FADDI-PA022", "setting": "Pseudomonas aeruginosa", "value": 1, "unit": "µg/mL"}, {"measurement": "Minimum inhibitory concentration (MIC), Pa FADDI-PA025", "setting": "Pseudomonas aeruginosa", "value": 4, "unit": "µg/mL"}, {"measurement": "Minimum inhibitory concentration (MIC), Ec FADDI-EC001", "setting": "Enterobacter cloacae", "value": 0.5, "unit": "µg/mL"}, {"measurement": "Minimum inhibitory concentration (MIC), Ec FADDI-EC003", "setting": "Enterobacter cloacae", "value": 0.25, "unit": "µg/mL"}, {"measurement": "Minimum inhibitory concentration (MIC), Ec FADDI-EC006", "setting": "Enterobacter cloacae", "value": 1, "unit": "µg/mL"}, {"measurement": "MIC", "setting": "Acinetobacter baumannii", "value": 2, "unit": "µg/mL"}, {"measurement": "Minimum inhibitory concentration (MIC), Ab ATCC 17978", "setting": "Acinetobacter baumannii", "value": 0.5, "unit": "µg/mL"}, {"measurement": "Minimum inhibitory concentration (MIC), Ab ATCC 19606", "setting": "Acinetobacter baumannii", "value": 2, "unit": "µg/mL"}, {"measurement": "Minimum inhibitory concentration (MIC), Ab FADDI-AB034", "setting": "Acinetobacter baumannii", "value": 1, "unit": "µg/mL"}, {"measurement": "Δ log (Treated-Control at 4 h)", "setting": "P. aeruginosa ATCC 27853", "value": "−3.27", "unit": "log10 CFU/mL"}]}
{"smiles": "CC[C@@H]1NC(=O)[C@@H](CC(C)C)NC(=O)[C@H](CCN)NC(=O)[C@@H](NC(=O)[C@H](CN)NC(=O)[C@@H](NC(=O)[C@H](CCN)NC(=O)c2ccc(-c3ccccc3)cc2)[C@@H](C)O)CCNC(=O)[C@H]([C@@H](C)O)NC(=O)[C@H](CCN)NC(=O)[C@H](CCN)NC1=O", "note": "[Compound 142] ({Benzoyl(4-Ph)}-[Dab]T[Dap][Dab][Dab][dL][Abu][Dab][Dab]T; lactam 4-C)", "values": [{"measurement": "MIC", "setting": "Klebsiella pneumoniae; K. pneumoniae FADDI-KP032", "value": 0.25, "unit": "µg/mL"}, {"measurement": "MIC", "setting": "Pseudomonas aeruginosa; P. aeruginosa ATCC 27853", "value": 1, "unit": "µg/mL"}, {"measurement": "Minimum inhibitory concentration (MIC), Pa ATCC 27853", "setting": "Pseudomonas aeruginosa; [1]", "value": 1, "unit": "µg/mL"}, {"measurement": "Minimum inhibitory concentration (MIC), Pa FADDI-PA022", "setting": "Pseudomonas aeruginosa; [2]", "value": 1, "unit": "µg/mL"}, {"measurement": "Minimum inhibitory concentration (MIC), Pa FADDI-PA025", "setting": "Pseudomonas aeruginosa; [3]", "value": 1, "unit": "µg/mL"}, {"measurement": "Minimum inhibitory concentration (MIC), Ec FADDI-EC001", "setting": "Enterobacter cloacae; [4]", "value": 0.25, "unit": "µg/mL"}, {"measurement": "Minimum inhibitory concentration (MIC), Ec FADDI-EC003", "setting": "Enterobacter cloacae; [5]", "value": 1, "unit": "µg/mL"}, {"measurement": "Minimum inhibitory concentration (MIC), Ec FADDI-EC006", "setting": "Enterobacter cloacae; [6]", "value": 0.5, "unit": "µg/mL"}, {"measurement": "MIC", "setting": "Acinetobacter baumannii; A. baumannii ATCC 19606", "value": 1, "unit": "µg/mL"}, {"measurement": "Minimum inhibitory concentration (MIC), Ab ATCC 17978", "setting": "Acinetobacter baumannii; [7]", "value": 0.5, "unit": "µg/mL"}, {"measurement": "Minimum inhibitory concentration (MIC), Ab ATCC 19606", "setting": "Acinetobacter baumannii; [8]", "value": 1, "unit": "µg/mL"}, {"measurement": "Minimum inhibitory concentration (MIC), Ab FADDI-AB034", "setting": "Acinetobacter baumannii; [9]", "value": 0.25, "unit": "µg/mL"}, {"measurement": "Δ log (Treated-Control at 4 h)", "setting": "P. aeruginosa ATCC 27853", "value": "−3.89", "unit": "log10 CFU/mL"}]}
{"smiles": "CCCCCCCCC(=O)N[C@@H](CCN)C(=O)N[C@H](C(=O)N[C@@H](CN)C(=O)N[C@H]1CCNC(=O)[C@H]([C@@H](C)O)NC(=O)[C@H](CCN)NC(=O)[C@H](CCN)NC(=O)[C@H](CO)NC(=O)[C@@H](Cc2ccccc2)NC(=O)[C@H](CCN)NC1=O)[C@@H](C)O", "note": "[Compound 143] (Nonanoyl-[Dab]T[Dap][Dab][Dab][dF]S[Dab][Dab]T; lactam 4-C)", "values": [{"measurement": "MIC", "setting": "Klebsiella pneumoniae", "value": 0.25, "unit": "µg/mL"}, {"measurement": "MIC", "setting": "Pseudomonas aeruginosa", "value": 0.5, "unit": "µg/mL"}, {"measurement": "Minimum inhibitory concentration (MIC), Pa ATCC 27853", "setting": "Pseudomonas aeruginosa", "value": 0.5, "unit": "µg/mL"}, {"measurement": "Minimum inhibitory concentration (MIC), Pa FADDI-PA022", "setting": "Pseudomonas aeruginosa", "value": 0.5, "unit": "µg/mL"}, {"measurement": "Minimum inhibitory concentration (MIC), Pa FADDI-PA025", "setting": "Pseudomonas aeruginosa", "value": 16, "unit": "µg/mL"}, {"measurement": "Minimum inhibitory concentration (MIC), Ec FADDI-EC001", "setting": "Enterobacter cloacae", "value": 1, "unit": "µg/mL"}, {"measurement": "Minimum inhibitory concentration (MIC), Ec FADDI-EC003", "setting": "Enterobacter cloacae", "value": 0.5, "unit": "µg/mL"}, {"measurement": "Minimum inhibitory concentration (MIC), Ec FADDI-EC006", "setting": "Enterobacter cloacae", "value": 0.5, "unit": "µg/mL"}, {"measurement": "MIC", "setting": "Acinetobacter baumannii", "value": 1, "unit": "µg/mL"}, {"measurement": "Minimum inhibitory concentration (MIC), Ab ATCC 17978", "setting": "Acinetobacter baumannii", "value": 1, "unit": "µg/mL"}, {"measurement": "Minimum inhibitory concentration (MIC), Ab ATCC 19606", "setting": "Acinetobacter baumannii", "value": 1, "unit": "µg/mL"}, {"measurement": "Minimum inhibitory concentration (MIC), Ab FADDI-AB034", "setting": "Acinetobacter baumannii", "value": 0.5, "unit": "µg/mL"}, {"measurement": "Δ log (Treated-Control at 4 h)", "setting": "P. aeruginosa ATCC 27853", "value": "−3.47", "unit": "log10 CFU/mL"}]}
{"smiles": "CC(C)C[C@H]1NC(=O)[C@H](CCN)NC(=O)[C@@H](NC(=O)[C@H](CN)NC(=O)[C@@H](NC(=O)[C@H](CCN)NC(=O)c2ccc(-c3ccc(Cl)cc3)cc2)[C@@H](C)O)CCNC(=O)[C@H]([C@@H](C)O)NC(=O)[C@H](CCN)NC(=O)[C@H](CCN)NC(=O)[C@H](C)NC1=O", "note": "[Compound 144] ({Benzoyl(4-(4-Cl-Ph))}-[Dab]T[Dap][Dab][Dab][dL]A[Dab][Dab]T; lactam 4-C)", "values": [{"measurement": "MIC", "setting": "Klebsiella pneumoniae; K. pneumoniae FADDI-KP032", "value": 1, "unit": "µg/mL"}, {"measurement": "MIC", "setting": "Pseudomonas aeruginosa; P. aeruginosa ATCC 27853", "value": 1, "unit": "µg/mL"}, {"measurement": "Minimum inhibitory concentration (MIC), Pa ATCC 27853", "setting": "Pseudomonas aeruginosa; [1]", "value": 1, "unit": "µg/mL"}, {"measurement": "Minimum inhibitory concentration (MIC), Pa FADDI-PA022", "setting": "Pseudomonas aeruginosa; [2]", "value": 2, "unit": "µg/mL"}, {"measurement": "Minimum inhibitory concentration (MIC), Pa FADDI-PA025", "setting": "Pseudomonas aeruginosa; [3]", "value": 1, "unit": "µg/mL"}, {"measurement": "Minimum inhibitory concentration (MIC), Ec FADDI-EC001", "setting": "Enterobacter cloacae; [4]", "value": 2, "unit": "µg/mL"}, {"measurement": "Minimum inhibitory concentration (MIC), Ec FADDI-EC003", "setting": "Enterobacter cloacae; [5]", "value": 1, "unit": "µg/mL"}, {"measurement": "Minimum inhibitory concentration (MIC), Ec FADDI-EC006", "setting": "Enterobacter cloacae; [6]", "value": 1, "unit": "µg/mL"}, {"measurement": "MIC", "setting": "Acinetobacter baumannii; A. baumannii ATCC 19606", "value": 1, "unit": "µg/mL"}, {"measurement": "Minimum inhibitory concentration (MIC), Ab ATCC 17978", "setting": "Acinetobacter baumannii; [7]", "value": 1, "unit": "µg/mL"}, {"measurement": "Minimum inhibitory concentration (MIC), Ab ATCC 19606", "setting": "Acinetobacter baumannii; [8]", "value": 1, "unit": "µg/mL"}, {"measurement": "Minimum inhibitory concentration (MIC), Ab FADDI-AB034", "setting": "Acinetobacter baumannii; [9]", "value": 0.5, "unit": "µg/mL"}, {"measurement": "Δ log (Treated-Control at 4 h)", "setting": "P. aeruginosa ATCC 27853", "value": "−2.98", "unit": "log10 CFU/mL"}]}
